Data on 5 compounds can be found in US20230310445A1, “LOX ENZYME INHIBITING METHODS AND COMPOSITIONS” (ANOVIA BIOSCIENCES, INC., priority 2020, published 2023).

Type in all cases: biochemical
In experiment [1] the target is T1, Recombinant human LOXL3 (lysyl oxidase like 3) (Homo sapiens, UniProt P58215).
T1 construct: purchased R&D systems
T1 sequence (P58215 26-753): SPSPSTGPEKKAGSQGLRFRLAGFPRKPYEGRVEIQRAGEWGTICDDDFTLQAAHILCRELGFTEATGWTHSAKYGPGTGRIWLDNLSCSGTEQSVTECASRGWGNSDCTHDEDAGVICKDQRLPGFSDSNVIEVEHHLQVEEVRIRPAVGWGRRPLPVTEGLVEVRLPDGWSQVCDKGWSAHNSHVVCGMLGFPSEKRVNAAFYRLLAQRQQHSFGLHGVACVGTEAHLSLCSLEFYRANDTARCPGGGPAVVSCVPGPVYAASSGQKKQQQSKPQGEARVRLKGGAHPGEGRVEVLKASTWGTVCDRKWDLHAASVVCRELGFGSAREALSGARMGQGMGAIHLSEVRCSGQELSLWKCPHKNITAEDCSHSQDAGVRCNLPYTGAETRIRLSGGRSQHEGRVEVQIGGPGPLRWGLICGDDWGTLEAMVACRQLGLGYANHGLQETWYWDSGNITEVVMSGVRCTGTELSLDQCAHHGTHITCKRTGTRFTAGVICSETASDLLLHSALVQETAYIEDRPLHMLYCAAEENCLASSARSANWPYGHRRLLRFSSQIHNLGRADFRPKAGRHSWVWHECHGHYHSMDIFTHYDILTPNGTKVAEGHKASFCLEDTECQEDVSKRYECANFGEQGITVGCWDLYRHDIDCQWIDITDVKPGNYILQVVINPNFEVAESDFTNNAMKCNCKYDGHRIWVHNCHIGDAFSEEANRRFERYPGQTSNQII
The experiment can be described thus: LOXL3 inhibition assay (fluorometric, cadaverine/Amplex Red/HRP). Conditions: IC50 class; recombinant human LOXL3, cadaverine substrate; read-out: Activity Range LOXL3. Here is the method: The ability of compounds to inhibit one or more of the lysyl oxidases LOXL2 and/or LOXL3 was determined using a fluorometric assay. This assay measures the activity of lysyl oxidases by coupling the reaction with horseradish peroxidase-catalyzed […]. The activity assay protocol uses cadaverine as substrate that releases hydrogen peroxide upon transformation by the specific LOX family enzyme present in the sample. Hydrogen peroxide is in turn detected using a red fluorescence substrate for HRP-coupled reactions (Amplex Red Enzyme Assays, Thermo Scientific Fisher). This leads to increase in fluorescence that can be easily detected at Ex/Em=540/590 nm in a fluorescence microplate reader.
Enzymes: Recombinant human LOXL2 (lysyl oxidase like 2) and recombinant human LOXL3 (lysyl oxidase like 3) were purchased from R&D systems and assays were performed in 1.2 M urea, 50 mM sodium borate buffer pH 8.0, and 10 mM CaCl.
Reaction: Final concentration in the LOXL2 and LOXL3 assays were as following and performed in a total volume of […]:
Experimental procedure: 5 μl of freshly prepared reaction buffer were delivered to reaction wells. Compounds were resuspended in 100% DMSO at 10 mM and delivered into buffer using acoustic technology (Echo550; nanoliter range). A 3× solution of LOXL2 or LOXL3 in reaction buffer was prepared (“enzyme solution”) and 5 μL of enzyme solution was added into the reaction wells. Buffer only was added to column 1 for no protein control. Reactions were incubated for 30 minutes at 37° C. A 3×mixture of cadaverine, Amplex Red, and HRP (“Substrate/Detection Mix) was prepared and subsequently 5 μL of the mixture added to each reaction well. Progress of reactions was monitored for 60 minutes at 37° C. using Clariostar plate reader (ex 530-12, ems 600-40). For all activity assays, pan-LOX inhibitor CCT365623 (Tang et al, 2017) and LOXL2/LOXL3 inhibitor PAT-1251 (PharmaKea) were included as standards.
Data analysis: Slope of the linear portion of the progress curve was calculated using Clariostar software. Typical analysis interval was between 8-30 min, but varied between experiments. The background subtracted signals (No protein wells are considered as background) were converted to % activity relative to DMSO controls. Data was analyzed using GraphPad Prism 4 with “sigmoidal dose-response (variable slope)”; 4 parameters with Hill Slope. Constraints: Bottom=Constant equal to 0. Top=Must be less than 120.

Experiment [2] deals with T2, Recombinant human LOXL2 (lysyl oxidase like 2) (Homo sapiens, UniProt Q9Y4K0).
T2 construct: purchased R&D systems
T2 sequence (Q9Y4K0 26-774): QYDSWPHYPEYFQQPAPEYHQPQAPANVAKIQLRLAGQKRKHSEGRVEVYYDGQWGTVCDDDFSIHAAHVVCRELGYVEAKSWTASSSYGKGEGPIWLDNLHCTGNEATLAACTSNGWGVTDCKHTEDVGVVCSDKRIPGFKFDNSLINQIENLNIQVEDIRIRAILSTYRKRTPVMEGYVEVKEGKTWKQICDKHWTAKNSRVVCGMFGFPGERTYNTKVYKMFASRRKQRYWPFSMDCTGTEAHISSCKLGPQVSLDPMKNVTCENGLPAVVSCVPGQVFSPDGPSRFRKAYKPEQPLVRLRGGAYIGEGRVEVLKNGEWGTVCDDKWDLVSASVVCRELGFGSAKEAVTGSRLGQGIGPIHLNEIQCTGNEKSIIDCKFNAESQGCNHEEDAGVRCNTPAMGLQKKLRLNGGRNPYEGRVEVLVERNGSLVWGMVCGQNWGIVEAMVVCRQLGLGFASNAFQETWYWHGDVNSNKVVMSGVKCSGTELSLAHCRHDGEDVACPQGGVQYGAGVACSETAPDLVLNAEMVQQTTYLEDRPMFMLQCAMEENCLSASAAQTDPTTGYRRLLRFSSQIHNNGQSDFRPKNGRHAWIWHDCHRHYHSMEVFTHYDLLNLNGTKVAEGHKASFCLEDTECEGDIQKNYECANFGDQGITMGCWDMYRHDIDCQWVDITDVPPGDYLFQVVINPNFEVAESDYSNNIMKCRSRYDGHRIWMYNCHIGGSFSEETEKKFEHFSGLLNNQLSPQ
Description: LOXL2 inhibition assay (fluorometric, cadaverine/Amplex Red/HRP). Conditions: IC50 class; recombinant human LOXL2, cadaverine substrate; read-out: Activity Range LOXL2. In outline:
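Both enzymes assayed in 1.2 M urea, 50 mM sodium borate pH 8.0, 10 mM CaCl, with 30 min compound–enzyme preincubation at 37° C before cadaverine/Amplex Red/HRP addition. Fluorescence followed 60 min at 37° C; linear-slope rates, background-subtracted, as % of DMSO control, fitted by 4-parameter variable-slope curve (bottom fixed at 0).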

Experiment [3] has as its target T3, Bovine lysyl oxidase (LOX) (Bos taurus, UniProt P33072).
T3 construct: from tissue; host or cells: adult bovine tendon
T3 sequence (P33072 170-418): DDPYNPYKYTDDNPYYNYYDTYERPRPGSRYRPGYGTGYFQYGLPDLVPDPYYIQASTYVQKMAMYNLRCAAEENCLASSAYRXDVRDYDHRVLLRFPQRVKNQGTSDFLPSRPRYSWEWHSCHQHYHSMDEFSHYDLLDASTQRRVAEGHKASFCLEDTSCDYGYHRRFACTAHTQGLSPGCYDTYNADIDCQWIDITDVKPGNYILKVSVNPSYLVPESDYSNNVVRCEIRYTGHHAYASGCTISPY
The experiment can be described thus: LOX inhibition assay (fluorometric, cadaverine/Amplex Red/HRP). Conditions: IC50 class; bovine tendon LOX, cadaverine substrate; read-out: Activity Range LOX. In outline: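 Bovine tendon-extracted LOX was preincubated 30 min at 37 °C with compound. Cadaverine/Amplex Red/HRP was then added and fluorescence (ex530/em600) monitored for 120 min at 37 °C. Progress-curve slopes, background-subtracted against no-protein wells, were normalised to DMSO controls and fitted with a four-parameter variable-slope dose-response model.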

In the case of `NCc1cccc(S(=O)(=O)N2C[C@@H](C(=O)N3CCS(=O)(=O)CC3)C[C@@H](c3ccccc3)C2)n1` (racemic) [Example 115, cis-(1-((6-(Aminomethyl)pyridin-2-yl)sulfonyl)-5-phenylpiperidin-3-yl)(1,1-dioxidothiomorpholino)methanone 2,2,2-trifluoroacetate], the IC50 in experiment [1] and in experiment [2] was over 30 µM throughout.

Consider `NCc1cccc(S(=O)(=O)N2C[C@H](C(=O)N3CCOCC3)C[C@@H](c3ccccc3)C2)n1` (racemic) [Example 114T, trans-(1-((6-(Aminomethyl)pyridin-2-yl)sulfonyl)-5-phenylpiperidin-3-yl)(morpholino)methanone 2,2,2-trifluoroacetate], for which the IC50 is over 30 µM in experiment [1] and 1 to 30 µM in experiment [2].

As for `CS(=O)(=O)N1CCN(C(=O)[C@@H]2C[C@@H](c3ccccc3)CN(S(=O)(=O)c3cccc(CN)c3)C2)CC1` (racemic) [Example 84, trans-(1-((3-(Aminomethyl)phenyl)sulfonyl)-5-phenylpiperidin-3-yl)(4-(methylsulfonyl)piperazin-1-yl)methanone 2,2,2-trifluoroacetate], the values for the IC50 in experiment [3] and in experiment [2] were 1 to 30 µM and at most 0.5 µM, respectively.

For the compound `NCc1cccc(S(=O)(=O)[C@H]2C[C@@H](C(=O)N3CCOCC3)CN(C3CCCCC3)C2)c1` (racemic) [Example 142, cis-(5-((3-(Aminomethyl)phenyl)sulfonyl)-1-cyclohexylpiperidin-3-yl)(morpholino)methanone 2,2,2-trifluoroacetate], the IC50 was over 30 µM in experiment [3] and at most 0.5 µM in experiment [2].

Turning to `CS(=O)(=O)[C@@H]1C[C@H](Oc2cccc(CN)c2)CN(c2ccccc2)C1` (racemic) [Example 21, cis-(3-((-5-(Methylsulfonyl)-1-phenylpiperidin-3-yl)oxy)phenyl)methanamine 2,2,2-trifluoroacetate], the values for the IC50 in experiment [3] and in experiment [2] were over 30 µM and 0.5 to 1 µM, respectively.
